System: human embryonic stem cell derived neural stem cells (NSCs)
Experiment: Neural stem cell proliferation assay (neurogenesis assay)
Type: cell-based
Conditions: Homo sapiens, Neural stem cell, 96 h; Table 1, novel compounds; concentration at which 150% activity of control (100%) is reached; ATP levels (CellTiterGlo) after 4 days incubation
Method in brief: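 NSCs derived from human ES cells by dual SMAD inhibition, seeded on polyornithin/laminin, dosed 4 h later (11 points, 8 μM to 8 nM). After 4 days at 37° C, ATP luminescence read; response = compound/medium control ×100, EC150 = concentration giving 150% of control.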

| SMILES | EC (150% of control) [µM] |
| --- | --- |
| Cc1cnc(CNC(=O)c2ccc3cncc(-c4ccc(Cl)cc4)c3n2)cn1 [Example 48, 8-(4-Chlorophenyl)-N-((5-methylpyrazin-2-yl)methyl)-1,6-naphthyridine-2-carboxamide] | 0.88 |
| COCc1ccc(-c2cncc3ccc(C(N)=O)nc23)cc1 [Example 104, 8-(4-(Methoxymethyl)phenyl)-1,6-naphthyridine-2-carboxamide] | 0.02 |
| O=C(NCCO)c1ccc2cncc(-c3cccc(O)c3)c2n1 [Example 144, N-(2-Hydroxyethyl)-8-(3-hydroxyphenyl)-1,6-naphthyridine-2-carboxamide] | 0.16 |
| CCCCCCNC(=O)Cc1cccc(-c2cncc3ccc(C(N)=O)nc23)c1 [Example 148, 8-(3-(2-(Hexylamino)-2-oxoethyl)phenyl)-1,6-naphthyridine-2-carboxamide] | 0.18 |
| O=C(c1ccc2cncc(-c3ccc(Cl)cc3)c2n1)N1CCNCC1 [Example 61, (8-(4-Chlorophenyl)-1,6-naphthyridin-2-yl)(piperazin-1-yl)methanone] | 3.15 |

Same assay, conditions: Homo sapiens, Neural stem cell, 96 h; Table 2, known compounds; concentration at which 150% activity of control (100%) is reached; ATP levels (CellTiterGlo) after 4 days incubation

| SMILES | EC (150% of control) [µM] |
| --- | --- |
| COc1ccc(-c2cncc3ccc(C(=O)NCc4cnc(C)cn4)nc23)cc1 [Example 180, 8-(4-Methoxy-phenyl)-[1,6]naphthyridine-2-carboxylic acid (5-methyl-pyrazin-2-ylmethyl)-amide] | 1.26 |
| COc1ccc(-c2cncc3ccc(C(=O)NCCCn4ccnc4)nc23)cc1 [Example 179, 8-(4-Methoxy-phenyl)-[1,6]naphthyridine-2-carboxylic acid (3-imidazol-1-yl-propyl)-amide] | 0.7 |
| COc1ccc(-c2cncc3ccc(C(=O)N4CCCCC4)nc23)cc1 [Example 183, [8-(4-Methoxy-phenyl)-[1,6]naphthyridin-2-yl]-piperidin-1-yl-methanone] | 1.25 |
